Results: patent publication US9598420B2, “Benzodiazepine bromodomain inhibitor” (GlaxoSmithKline LLC, priority 2009, dated 2017)
Structures can show the parent of a compound that is named as a salt.

System: LPS induced IL-6 secretion from whole blood
Assay: Measurement of LPS Induced IL-6 Secretion from Whole Blood
Type: cell-based
Details: LPS 200 ng/ml, 24 hours, immunoassay, read-out: pIC50 (IL-6 levels) (converted)
Procedure: Activation of monocytic cells by agonists of toll-like receptors such as bacterial lipopolysaccharide (LPS) results in production of key inflammatory mediators including IL-6. Such pathways are widely considered to be central to the pathophysiology of a range of auto-immune and inflammatory disorders.
After further incubation for 24 hours at 37 degrees, 140 ul of PBS are added to each well. The plates are sealed, shaken for 10 minutes and then centrifuged (2500 rpm×10 min). 100 ul of the supernatant are removed and IL-6 levels assayed by immunoassay (typically by MesoScale Discovery technology) either immediately or following storage at −20 degrees.

Row | Structure (SMILES) | IC50 [µM]
1 | COc1ccc2c(c1)C(c1ccc(Cl)cc1)=NC(CC(=O)NCCc1ccccc1)c1nnc(C)n1-2 (stereo not shown) [Example 2, 2-[6-(4-chlorophenyl)-1-methyl-8-(methyloxy)-4H-[1,2,4]triazolo[4,3-a][1,4]benzodiazepin-4-yl]-N-(2-phenylethyl)acetamide] | ≤ 10
2 | COc1ccc2c(c1)C(c1ccc(Cl)cc1)=NC(CC(=O)N1CCCCC1)c1nnc(C)n1-2 (stereo not shown) [Example 3, 6-(4-chlorophenyl)-1-methyl-8-(methyloxy)-4-[2-oxo-2-(1-piperidinyl)ethyl]-4H-[1,2,4]triazolo[4,3-a][1,4]benzodiazepine] | ≤ 10
3 | COc1ccc2c(c1)C(c1ccc(Cl)cc1)=NC(CC(=O)NCc1ccco1)c1nnc(C)n1-2 (stereo not shown) [Example 4, 2-[6-(4-chlorophenyl)-1-methyl-8-(methyloxy)-4H-[1,2,4]triazolo[4,3-a][1,4]benzodiazepin-4-yl]-N-(2-furanylmethyl)acetamide] | ≤ 10
4 | COc1ccc2c(c1)C(c1ccc(Cl)cc1)=N[C@@H](CC(=O)Nc1ccc(F)cc1)c1nnc(C)n1-2 [Example 11, 2-[(4S)-6-(4-chlorophenyl)-1-methyl-8-(methyloxy)-4H-[1,2,4]triazolo[4,3-a][1,4]benzodiazepin-4-yl]-N-(4-fluorophenyl)acetamide] | ≤ 10
5 | COc1ccc2c(c1)C(c1ccc(Cl)cc1)=N[C@@H](CC(=O)Nc1cccnc1)c1nnc(C)n1-2 [Example 13, 2-[(4S)-6-(4-chlorophenyl)-1-methyl-8-(methyloxy)-4H-[1,2,4]triazolo[4,3-a][1,4]benzodiazepin-4-yl]-N-3-pyridinylacetamide] | ≤ 10
6 | COc1ccc2c(c1)C(c1ccc(Cl)cc1)=N[C@@H](CC(=O)N[C@@H](C)c1ccccc1)c1nnc(C)n1-2 [Example 17, 2-[(4S)-6-(4-chlorophenyl)-1-methyl-8-(methyloxy)-4H-[1,2,4]triazolo[4,3-a][1,4]benzodiazepin-4-yl]-N-[(1S)-1-phenylethyl]acetamide] | ≤ 10
7 | COc1ccc2c(c1)C(c1ccc(Cl)cc1)=NC(CC(=O)NCCN(C)C)c1nnc(C)n1-2 (stereo not shown) [Example 26, 2-[6-(4-chlorophenyl)-1-methyl-8-(methyloxy)-4H-[1,2,4]triazolo[4,3-a][1,4]benzodiazepin-4-yl]-N-[2-(dimethylamino)ethyl]acetamide] | ≤ 10
8 | Cc1nnc2n1-c1ccc(OS(C)(=O)=O)cc1C(c1ccc(Cl)cc1)=N[C@H]2CC(=O)Nc1ccc(F)cc1 [Example 31, (4S)-6-(4-Chlorophenyl)-4-{2-[(4-fluorophenyl)amino]-2-oxoethyl}-1-methyl-4H-[1,2,4]triazolo[4,3-a][1,4]benzodiazepin-8-yl methanesulfonate] | ≤ 10
9 | COC(=O)C[C@@H]1N=C(c2ccc(Cl)cc2)c2cc(OC)ccc2-n2c(C)nnc21 [Example 34, Methyl [(4S)-6-(4-chlorophenyl)-1-methyl-8-(methyloxy)-4H-[1,2,4]triazolo[4,3-a][1,4]benzodiazepin-4-yl]acetate] | ≤ 10
10 | CNCCNC(=O)C[C@@H]1N=C(c2ccc(Cl)cc2)c2cc(OC)ccc2-n2c(C)nnc21 [Example 38, 2-[(4S)-6-(4-Chlorophenyl)-1-methyl-8-(methyloxy)-4H-[1,2,4]triazolo[4,3-a][1,4]benzodiazepin-4-yl]-N-[2-(methylamino)ethyl]acetamide trifluoroacetic acid salt] | ≤ 10
11 | COc1ccc2c(c1)C(c1ccc(Cl)cc1)=N[C@@H](CC(=O)NC1CCNCC1)c1nnc(C)n1-2 [Example 39, 2-[(4S)-6-(4-Chlorophenyl)-1-methyl-8-(methyloxy)-4H-[1,2,4]triazolo[4,3-a][1,4]benzodiazepin-4-yl]-N-4-piperidinylacetamide trifluoroacetic acid salt] | ≤ 10
12 | CNC1CCN(C(=O)C[C@@H]2N=C(c3ccc(Cl)cc3)c3cc(OC)ccc3-n3c(C)nnc32)CC1 [Example 40, 1-{[(4S)-6-(4-chlorophenyl)-1-methyl-8-(methyloxy)-4H-[1,2,4]triazolo[4,3-a][1,4]benzodiazepin-4-yl]acetyl}-N-methyl-4-piperidinamine formic acid salt] | ≤ 10
13 | COc1ccc2c(c1)C(c1ccc(Cl)cc1)=N[C@@H](CC(=O)N1CCC(N)CC1)c1nnc(C)n1-2 [Example 41, (S)-1-(4-aminopiperidin-1-yl)-2-(6-(4-chlorophenyl)-8-methoxy-1-methyl-4H-benzo[f][1,2,4]triazolo[4,3-a][1,4]diazepin-4-yl)ethanone] | ≤ 10
14 | COc1ccc2c(c1)C(c1ccc(Cl)cc1)=N[C@@H](CC(=O)NC1CNC1)c1nnc(C)n1-2 [Example 42, (S)-N-(azetidin-3-yl)-2-(6-(4-chlorophenyl)-8-methoxy-1-methyl-4H-benzo[f][1,2,4]triazolo[4,3-a][1,4]diazepin-4-yl)acetamide] | ≤ 10
15 | COc1ccc2c(c1)C(c1ccc(Cl)cc1)=N[C@@H](CC(=O)N1CC(N)C1)c1nnc(C)n1-2 [Example 43, (S)-1-(3-aminoazetidin-1-yl)-2-(6-(4-chlorophenyl)-8-methoxy-1-methyl-4H-benzo[f][1,2,4]triazolo[4,3-a][1,4]diazepin-4-yl)ethanone] | ≤ 10
16 | COc1ccc2c(c1)C(c1ccc(Cl)cc1)=N[C@@H](CC(=O)N1CCC(O)CC1)c1nnc(C)n1-2 [Example 44, (S)-2-(6-(4-chlorophenyl)-8-methoxy-1-methyl-4H-benzo[f][1,2,4]triazolo[4,3-a][1,4]diazepin-4-yl)-1-(4-hydroxypiperidin-1-yl)ethanone] | ≤ 10
17 | COc1ccc2c(c1)C(c1ccc(Cl)cc1)=N[C@@H](CC(=O)NCCN1CCOCC1)c1nnc(C)n1-2 [Example 45, 2-[(4S)-6-(4-chlorophenyl)-1-methyl-8-(methyloxy)-4H-[1,2,4]triazolo[4,3-a][1,4]benzodiazepin-4-yl]-N-[2-(4-morpholinyl)ethyl]acetamide] | ≤ 10

Row | Structure (SMILES) | IC50 [µM]
18 | COc1ccc2c(c1)C(c1ccc(Cl)cc1)=N[C@@H](CC(=O)NCCc1c[nH]cn1)c1nnc(C)n1-2 [Example 46, 2-[(4S)-6-(4-chlorophenyl)-1-methyl-8-(methyloxy)-4H-[1,2,4]triazolo[4,3-a][1,4]benzodiazepin-4-yl]-N-[2-(1H-imidazol-4-yl)ethyl]acetamide] | ≤ 10
19 | COc1ccc2c(c1)C(c1ccc(Cl)cc1)=N[C@@H](CC(=O)OC(C)(C)C)c1nnc(C)n1-2 [Example 47, (S)-tert-butyl-2-(6-(4-chlorophenyl)-8-methoxy-1-methyl-4H-benzo[f][1,2,4]triazolo[4,3-a][1,4]diazepin-4-yl)acetate] | ≤ 10
20 | COc1ccc2c(c1)C(c1ccc(Cl)cc1)=N[C@@H](CC(=O)OC1CCNCC1)c1nnc(C)n1-2 [Example 48, (S)-piperidin-4-yl-2-(6-(4-chlorophenyl)-8-methoxy-1-methyl-4H-benzo[f][1,2,4]triazolo[4,3-a][1,4]diazepin-4-yl)acetate] | ≤ 10
21 | COc1ccc2c(c1)C(c1ccc(Cl)cc1)=N[C@@H](CC(=O)NCCN(C)C)c1nnc(C)n1-2 [Example 50, 2-[(4S)-6-(4-chlorophenyl)-1-methyl-8-(methyloxy)-4H-[1,2,4]triazolo[4,3-a][1,4]benzodiazepin-4-yl]-N-[2-(dimethylamino)ethyl]acetamide formic acid salt] | ≤ 10
22 | COc1ccc2c(c1)C(c1ccc(Cl)cc1)=N[C@@H](CC(=O)NCCCN(C)C)c1nnc(C)n1-2 [Example 51, 2-[(4S)-6-(4-chlorophenyl)-1-methyl-8-(methyloxy)-4H-[1,2,4]triazolo[4,3-a][1,4]benzodiazepin-4-yl]-N-[3-(dimethylamino)propyl]acetamide formic acid salt] | ≤ 10
23 | COc1ccc2c(c1)C(c1ccc(Cl)cc1)=N[C@@H](CC(=O)Nc1ccncn1)c1nnc(C)n1-2 [Example 54, 2-[(4S)-6-(4-chlorophenyl)-1-methyl-8-(methyloxy)-4H-[1,2,4]triazolo[4,3-a][1,4]benzodiazepin-4-yl]-N-4-pyrimidinylacetamide] | ≤ 10
24 | COc1ccc2c(c1)C(c1ccc(Cl)cc1)=N[C@@H](CC(=O)Nc1cc(C)on1)c1nnc(C)n1-2 [Example 55, 2-[(4S)-6-(4-chlorophenyl)-1-methyl-8-(methyloxy)-4H-[1,2,4]triazolo[4,3-a][1,4]benzodiazepin-4-yl]-N-(5-methyl-3-isoxazolyl)acetamide] | ≤ 10
25 | COc1ccc2c(c1)C(c1ccc(Cl)cc1)=N[C@@H](CC(=O)NC1CCOCC1)c1nnc(C)n1-2 [Example 56, 2-[(4S)-6-(4-chlorophenyl)-1-methyl-8-(methyloxy)-4H-[1,2,4]triazolo[4,3-a][1,4]benzodiazepin-4-yl]-N-(tetrahydro-2H-pyran-4-yl)acetamide] | ≤ 10
26 | COc1ccc(COC(=O)C[C@@H]2N=C(c3ccc(Cl)cc3)c3cc(OC)ccc3-n3c(C)nnc32)cc1 [Example 58] | ≤ 10
27 | COc1ccc2c(c1)C(c1ccc(Cl)cc1)=N[C@@H](CC(=O)OCC(C)C)c1nnc(C)n1-2 [Example 59] | ≤ 10
28 | COc1ccc2c(c1)C(c1ccc(Cl)cc1)=N[C@@H](CC(=O)OC1CCOCC1)c1nnc(C)n1-2 [Example 60] | ≤ 10
29 | COc1ccc2c(c1)C(c1ccc(Cl)cc1)=NC(CC(=O)Nc1ccncc1)c1nnc(C)n1-2 (stereo not shown) [Example 61] | ≤ 10
30 | COc1ccc2c(c1)C(c1ccc(Cl)cc1)=NC(CC(=O)NCC1CC1)c1nnc(C)n1-2 (stereo not shown) [Example 62] | ≤ 10
31 | Cc1nnc2n1-c1ccccc1C(c1ccc(Cl)cc1)=NC2CC(=O)Nc1ccncc1 (stereo not shown) [Example 63] | ≤ 10
32 | COc1ccc2c(c1)C(c1ccc(Cl)cc1)=NC(CC(=O)Nc1nccs1)c1nnc(C)n1-2 (stereo not shown) [Example 64] | ≤ 10
33 | COc1ccc2c(c1)C(c1ccc(Cl)cc1)=NC(CC(=O)Nc1ccc(F)cc1)c1nnc(C)n1-2 (stereo not shown) [Example 67] | ≤ 10
34 | CCNC(=O)C[C@@H]1N=C(c2ccc(Cl)cc2)c2ccc(OC)cc2-n2c(C)nnc21 [Example 69] | ≤ 10
